Source: ChEMBL document CHEMBL1255345, “Efficacies of ceftobiprole medocaril and comparators in a rabbit model of osteomyelitis due to methicillin-resistant Staphylococcus aureus” (Antimicrob Agents Chemother, 2008)
In brackets after ≈: the same amount, converted by molar mass. Activity calls are given as the source filed them. The rule behind the calls is not given here.

Experiments:
[1] = Drug level in tibial marrow of New Zealand rabbit at 40 mg/kg, sc administered every 6 hrs for 1 week measured after 3 hrs post last dose; details: read-out: Drug uptake
[2] = tested on: Oryctolagus cuniculus; test: Toxicity in methicillin-resistant Staphylococcus aureus-infected New Zealand rabbit osteomyelitis model assessed as body weight at 40 mg/kg, sc administered every 6 hrs for 4 days measured on week 4 postinfection (reference value: […] +/- […] kg); type: organism-based; details: in vivo
[3] = Plasma concentration in New Zealand rabbit osteomyelitis model at 40 mg/kg, sc administered every 6 hrs for 1 week measured after 3 hrs post last dose
[4] = tested on: Staphylococcus aureus; test: Antimicrobial activity against methicillin-resistant Staphylococcus aureus infected in New Zealand rabbit osteomyelitis model assessed as improvement in rate of bone reconstruction at 40 mg/kg, sc administered every 6 hrs for 4 weeks measured on week 2 posttreatment by radiographic analysis
[5] = tested on: Staphylococcus aureus; test: Antimicrobial activity against methicillin-resistant Staphylococcus aureus infected in New Zealand rabbit osteomyelitis model assessed as improvement in rate of bone reconstruction at 40 mg/kg, sc administered every 6 hrs for 4 weeks measured on week 6 postinfection by radiographic analysis; type: functional, organism-based; set-up: dose 40 mg/kg
[6] = Cmax in New Zealand rabbit at 80 mg/kg, sc administered every 6 hrs for 4 days measured 16th dose by RP-HPLC/MS/MS; type: ADME, organism-based, Oryctolagus cuniculus; set-up: dose 80 mg/kg, route subcutaneous; details: in vivo
[7] = Cmax in New Zealand rabbit osteomyelitis model at 40 mg/kg, sc administered every 6 hrs for 4 days; type: ADME, organism-based, Oryctolagus cuniculus; set-up: dose 40 mg/kg, route subcutaneous; details: in vivo
[8] = AUC in human at 500 mg, infusion up to 1 hr; details: plasma
[9] = tested on: Staphylococcus aureus; test: Antimicrobial activity against methicillin-resistant Staphylococcus aureus infected in New Zealand rabbit osteomyelitis model assessed as improvement in extent of bone remodeling at 40 mg/kg, sc administered every 6 hrs for 4 weeks measured on week 8 postinfection by radiographic analysis; type: functional, organism-based; set-up: dose 40 mg/kg
[10] = AUC in New Zealand rabbit at 80 mg/kg, sc administered every 6 hrs for 4 days measured after 1 hr post first dose by RP-HPLC/MS/MS; type: ADME, organism-based, Oryctolagus cuniculus; set-up: time < 1 hr, dose 80 mg/kg, route subcutaneous; details: plasma
[11] = Cmax in New Zealand rabbit at 20 mg/kg, sc administered every 6 hrs for 4 days measured 16th dose by RP-HPLC/MS/MS; type: ADME, organism-based, Oryctolagus cuniculus; set-up: dose 20 mg/kg, route subcutaneous; details: in vivo
[12] = tested on: Staphylococcus aureus; test: Antimicrobial activity against Staphylococcus aureus 168-1 isolated from osteomyelitis patient by broth macrodilution method; type: functional
[13] = tested on: Oryctolagus cuniculus; test: Toxicity in methicillin-resistant Staphylococcus aureus-infected New Zealand rabbit osteomyelitis model assessed as body weight at 40 mg/kg, sc administered every 6 hrs for 4 days measured on week 6 postinfection (reference value: […] +/- […] kg); type: organism-based; details: in vivo
[14] = tested on: Staphylococcus aureus; test: Antimicrobial activity against methicillin-resistant Staphylococcus aureus infected in New Zealand rabbit osteomyelitis model assessed as improvement in rate of bone reconstruction at 40 mg/kg, sc administered every 6 hrs for 4 weeks measured on week 8 postinfection by radiographic analysis; type: functional, organism-based; set-up: dose 40 mg/kg
[15] = Cmax in human at 500 mg, infusion up to 1 hr; details: in vivo
[16] = Cmax in New Zealand rabbit at 80 mg/kg, sc administered every 6 hrs for 4 days measured after 1 hr post first dose by RP-HPLC/MS/MS; type: ADME, organism-based, Oryctolagus cuniculus; set-up: dose 80 mg/kg, route subcutaneous; details: in vivo
[17] = tested on: Staphylococcus aureus; test: Antimicrobial activity against methicillin-resistant Staphylococcus aureus infected in New Zealand rabbit osteomyelitis model assessed as improvement in extent of bone remodeling at 40 mg/kg, sc administered every 6 hrs for 4 weeks measured on week 6 postinfection by radiographic analysis; type: functional, organism-based; set-up: dose 40 mg/kg
[18] = Drug level in tibial matrix of New Zealand rabbit at 40 mg/kg, sc administered every 6 hrs for 1 week measured after 3 hrs post last dose; details: read-out: Drug uptake
[19] = Drug level in tibial matrix of New Zealand rabbit osteomyelitis model at 40 mg/kg, sc administered every 6 hrs for 1 week measured after 3 hrs post last dose; details: read-out: Drug uptake
[20] = tested on: Staphylococcus aureus; test: Antimicrobial activity against methicillin-resistant Staphylococcus aureus infected in New Zealand rabbit osteomyelitis model assessed as improvement in extent of bone remodeling at 40 mg/kg, sc administered every 6 hrs for 4 weeks measured on week 2 posttreatment by radiographic analysis
[21] = tested on: Oryctolagus cuniculus; test: Toxicity in methicillin-resistant Staphylococcus aureus-infected New Zealand rabbit osteomyelitis model assessed as body weight at 40 mg/kg, sc administered every 6 hrs for 4 days measured on week 8 postinfection (reference value: […] +/- […] kg); type: organism-based; details: in vivo
[22] = Cmax in New Zealand rabbit at 20 mg/kg, sc administered every 6 hrs for 4 days measured after 1 hr post first dose by RP-HPLC/MS/MS; type: ADME, organism-based, Oryctolagus cuniculus; set-up: dose 20 mg/kg, route subcutaneous; details: in vivo
[23] = AUC in New Zealand rabbit at 20 mg/kg, sc administered every 6 hrs for 4 days measured after 1 hr post first dose by RP-HPLC/MS/MS; type: ADME, organism-based, Oryctolagus cuniculus; set-up: time < 1 hr, dose 20 mg/kg, route subcutaneous; details: plasma
[24] = Drug level in tibial marrow of New Zealand rabbit osteomyelitis model at 40 mg/kg, sc administered every 6 hrs for 1 week measured after 3 hrs post last dose; details: read-out: Drug uptake
[25] = Cmin in New Zealand rabbit at 20 mg/kg, sc administered every 6 hrs for 4 days measured after 1 hr post first dose by RP-HPLC/MS/MS; type: ADME, organism-based, Oryctolagus cuniculus; set-up: dose 20 mg/kg, route subcutaneous; details: New Zealand, in vivo, read-out: Cmin
[26] = tested on: Oryctolagus cuniculus; test: Toxicity in methicillin-resistant Staphylococcus aureus-infected New Zealand rabbit osteomyelitis model assessed as body weight at 40 mg/kg, sc administered every 6 hrs for 4 days measured on week 2 postinfection (reference value: […] +/- […] kg); type: organism-based; details: in vivo

SMILES: Nc1nc(/C(=N/O)C(=O)N[C@@H]2C(=O)N3C(C(=O)O)=C(/C=C4\CCN([C@@H]5CCNC5)C4=O)CS[C@H]23)ns1 [CEFTOBIPROLE]
- concentration at 3 h [1]: 2400 ng/g
- Activity [2]: 2.73 kg
- concentration at 3 h [3]: 4900 ng/mL
- Activity [4]: Active
- Activity [5]: Active
- Cmax [6]: 58900 ng/mL
- Cmax [7]: 76800 ng/mL
- AUC at 1 h [8]: 116 µg·h/mL
- Activity [9]: Active
- AUC at 1 h [10]: 215 µg·h/mL
- Cmax [11]: 22100 ng/mL
- MBC [12]: 6.25 µg/mL (≈ 11.7 µM)
- MIC [12]: 0.39 µg/mL (≈ 0.73 µM)
- Activity [13]: 2.86 kg
- Activity [14]: Active
- Cmax [15]: 34200 ng/mL
- Cmax [16]: 83300 ng/mL
- Activity [17]: Active
- concentration at 3 h [18]: 300 ng/g
- concentration at 3 h [19]: 900 ng/g
- Activity [20]: Active
- Activity [21]: 3.07 kg
- Cmax [22]: 23800 ng/mL
- AUC at 1 h [23]: 65.3 µg·h/mL
- concentration at 3 h [24]: 12800 ng/g
- concentration at 1 h [25]: 2700 ng/mL
- Activity [26]: 2.64 kg
